Assay results published in the NIST ThermoML archive (doi:10.1016/j.jct.2018.07.004).
Where “and” joins values, the source holds several entries; their conditions need not be identical. Equal values may be shown once. Numbers after ± are expanded uncertainties.

Conditions: Calculated from knudsen effusion weight loss

CCn1cc[n+](C)c1.O=S(=O)([N-]S(=O)(=O)C(F)(F)F)C(F)(F)F
Liquid
Conditions	vapor or sublimation pressure
433.05 K	2.8e-06 ± 3.2e-06 kPa
433.1 K	3e-06 ± 3.2e-06 kPa
438.04 K	4.2e-06 ± 3.2e-06 kPa
438.1 K	4.3e-06 ± 3.2e-06 kPa
438.12 K	4.5e-06 ± 3.2e-06 kPa
443.04 K	5.9e-06 ± 3.2e-06 kPa
443.09 K	6.3e-06 ± 3.2e-06 kPa
443.12 K	6.3e-06 ± 3.2e-06 kPa
448.03 K	8.4e-06 ± 3.2e-06 kPa
448.09 K	8.8e-06 ± 3.2e-06 kPa
448.12 K	8.9e-06 ± 3.2e-06 kPa
453.03 K	1.18e-05 ± 3.2e-06 kPa
453.09 K	1.23e-05 ± 3.2e-06 kPa
453.11 K	1.25e-05 ± 3.2e-06 kPa and 1.21e-05 ± 3.2e-06 kPa
453.12 K	1.25e-05 ± 3.2e-06 kPa
458.01 K	1.71e-05 ± 3.2e-06 kPa
458.02 K	1.66e-05 ± 3.2e-06 kPa
458.09 K	1.72e-05 ± 3.2e-06 kPa
458.11 K	1.76e-05 ± 3.3e-06 kPa
458.13 K	1.72e-05 ± 3.2e-06 kPa
463.05 K	2.29e-05 ± 3.3e-06 kPa
463.08 K	2.39e-05 ± 3.3e-06 kPa
463.1 K	2.45e-05 ± 3.3e-06 kPa and 2.42e-05 ± 3.3e-06 kPa
463.12 K	2.38e-05 ± 3.3e-06 kPa
463.13 K	2.39e-05 ± 3.3e-06 kPa
468.04 K	3.16e-05 ± 3.5e-06 kPa
468.08 K	3.27e-05 ± 3.4e-06 kPa
468.1 K	3.41e-05 ± 3.4e-06 kPa
468.11 K	3.33e-05 ± 3.4e-06 kPa
468.12 K	3.29e-05 ± 3.5e-06 kPa
468.13 K	3.32e-05 ± 3.5e-06 kPa
473.04 K	4.32e-05 ± 3.9e-06 kPa
473.07 K	4.5e-05 ± 3.6e-06 kPa
473.1 K	4.61e-05 ± 3.6e-06 kPa
473.12 K	4.51e-05 ± 3.7e-06 kPa
473.13 K	4.53e-05 ± 3.7e-06 kPa
473.14 K	4.69e-05 ± 3.9e-06 kPa
478.04 K	5.84e-05 ± 4e-06 kPa
478.07 K	6.13e-05 ± 3.9e-06 kPa
478.09 K	6.25e-05 ± 3.9e-06 kPa
478.12 K	6.08e-05 ± 4.1e-06 kPa and 6.16e-05 ± 4.2e-06 kPa
478.13 K	6.12e-05 ± 4.1e-06 kPa
483.04 K	7.83e-05 ± 4.8e-06 kPa
483.06 K	8.23e-05 ± 4.4e-06 kPa
483.08 K	8.4e-05 ± 4.4e-06 kPa
483.11 K	8.32e-05 ± 4.4e-06 kPa and 8.24e-05 ± 4.4e-06 kPa
483.12 K	8.26e-05 ± 4.9e-06 kPa
488.05 K	0.0001107 ± 5.3e-06 kPa
488.06 K	0.0001105 ± 5.3e-06 kPa
488.08 K	0.000112 ± 5.3e-06 kPa
488.11 K	0.0001112 ± 5.3e-06 kPa and 0.0001115 ± 5.3e-06 kPa
493.05 K	0.0001465 ± 7e-06 kPa
493.07 K	0.0001477 ± 7e-06 kPa
493.1 K	0.0001477 ± 7e-06 kPa
493.11 K	0.0001477 ± 7e-06 kPa
498.1 K	0.0001931 ± 9.2e-06 kPa
498.11 K	0.0001943 ± 9.2e-06 kPa
503.1 K	0.0002516 ± 1.2e-05 kPa and 0.0002533 ± 1.2e-05 kPa

c1ccc(-c2cc(-c3ccccc3)cc(-c3ccccc3)c2)cc1 [1,3,5-triphenylbenzene]
Crystal
Conditions	vapor or sublimation pressure
408.04 K	0.000144 ± 7.5e-06 kPa
408.05 K	0.0001488 ± 7.3e-06 kPa
408.16 K	0.0001536 ± 7.5e-06 kPa
413.04 K	0.0002384 ± 1.2e-05 kPa
413.05 K	0.000247 ± 1.2e-05 kPa
413.16 K	0.0002528 ± 1.2e-05 kPa
418.03 K	0.0003878 ± 2.1e-05 kPa
418.05 K	0.0004034 ± 2e-05 kPa
418.15 K	0.0004157 ± 2e-05 kPa
423.03 K	0.0006219 ± 3.3e-05 kPa and 0.0006345 ± 3.2e-05 kPa
423.04 K	0.0006477 ± 3.2e-05 kPa
423.16 K	0.0006722 ± 3.3e-05 kPa
428.03 K	0.0009832 ± 5.6e-05 kPa
428.04 K	0.001026 ± 8.3e-05 kPa
428.16 K	0.001081 ± 8.8e-05 kPa
